Drawing on ChEMBL document CHEMBL3112512, “Microwave induced three-component synthesis and antimycobacterial activity of benzopyrazolo[3,4-b]quinolindiones” (2014), this text covers MIC for 15 compounds.

Assay type in all cases: functional
For test [1], the system named is Mycobacterium intracellulare. Kind of test: Antimycobacterial activity against Mycobacterium intracellulare MNT1408 clinical isolate by MTT assay. (Tetrazolium assays rely on reduction of a dye to a coloured formazan, in cell work by metabolically active cells.)
In test [2] the test system is Mycolicibacterium fortuitum. Kind of test: Antimycobacterial activity against Mycobacterium fortuitum MNT1073 clinical isolate by MTT assay.
The subject of the next test is Mycobacterium szulgai. The test is described as follows: Antimycobacterial activity against Mycobacterium szulgai MNT1100 clinical isolate by MTT assay.
The next test has as its system Mycobacteroides chelonae. Kind of test: Antimycobacterial activity against Mycobacterium chelonae MNT1407 clinical isolate by MTT assay.
In test [3] the test system is Mycobacterium tuberculosis. The test is described as follows: Antimycobacterial activity against streptomycin, isoniazid, rifampicin, ethambutol and pirazynamide-susceptible Mycobacterium tuberculosis H37Rv ATCC 27294 by MTT assay.
In test [4] the test system is Mycobacterium scrofulaceum. The test is described as follows: Antimycobacterial activity against Mycobacterium scrofulaceum MNT1193 clinical isolate by MTT assay.

≈ marks a conversion by molar mass, not a printed value.

Usually MIC stands for the least concentration at which growth counts as inhibited. High values mean a need for much substance, low ones inhibition by little substance.

Consider `Cc1nn(-c2ccccc2)c2nc3c(c(-c4ccc(F)cc4)c12)C(=O)C(=O)c1ccccc1-3`, for which the MIC in test [1] was above 32 mg/L; in test [2] it was above 32 mg/L; against Mycobacterium szulgai it was above 32 mg/L; with Mycobacteroides chelonae it was above 32 mg/L; in test [3], 4 mg/L (≈ 9.23 µM); in test [4] it was above 32 mg/L.
On to `COc1cc(-c2c3c(nc4c2c(C)nn4-c2ccccc2)-c2ccccc2C(=O)C3=O)cc(OC)c1OC`, for which the MIC (in test [1]; in test [2]; against Mycobacterium szulgai; with Mycobacteroides chelonae; in test [3]; in test [4]) was above 32 mg/L in each case.
Take `COc1ccc(C2C3=C(Nc4[nH]nc(-c5ccccc5)c42)c2ccccc2C(=O)C3=O)cc1` (stereo not given): the MIC (in test [1]; in test [2]; in the test with Mycobacterium szulgai; in the test on Mycobacteroides chelonae; in test [3]; in test [4]) was above 32 mg/L each time.
Regarding `O=C1C(=O)c2ccccc2C2=C1C(c1ccccc1)c1c(-c3ccccc3)n[nH]c1N2` (stereo not given), the MIC (in test [1]; in test [2]; against Mycobacterium szulgai; against Mycobacteroides chelonae; in test [3]; in test [4]) was above 32 mg/L throughout.
As to `O=C1C(=O)c2ccccc2C2=C1C(c1ccccc1)c1c(-c3ccc(Cl)cc3)n[nH]c1N2` (stereo not given), the MIC (in test [1]; in test [2]; with Mycobacterium szulgai; against Mycobacteroides chelonae; in test [3]; in test [4]) was above 32 mg/L throughout.
For the compound `O=C1C(=O)c2ccccc2C2=C1C(c1ccccc1)c1c(-c3ccc([N+](=O)[O-])cc3)n[nH]c1N2` (stereo not given), the MIC in test [1] was above 32 mg/L; in test [2] it was above 32 mg/L; with Mycobacterium szulgai it was above 32 mg/L; with Mycobacteroides chelonae, above 32 mg/L; in test [3], 32 mg/L (≈ 71.4 µM); in test [4] it was above 32 mg/L.
As for `NNC(=O)c1ccncc1` [ISONIAZID], the MIC is above 0.5 mg/L in test [1]; above 0.5 mg/L in test [2]; above 0.5 mg/L against Mycobacterium szulgai; above 0.5 mg/L in the test on Mycobacteroides chelonae; 0.25 mg/L (≈ 1.82 µM) in test [3]; above 0.5 mg/L in test [4].
In the case of `Cc1ccc(C2C3=C(Nc4[nH]nc(-c5ccccc5)c42)c2ccccc2C(=O)C3=O)cc1` (stereo not given), the MIC (in test [1]; in test [2]; against Mycobacterium szulgai; against Mycobacteroides chelonae; in test [3]; in test [4]) was above 32 mg/L each time.
As for `Cc1ccc(-c2n[nH]c3nc4c(c(-c5ccc([N+](=O)[O-])cc5)c23)C(=O)C(=O)c2ccccc2-4)cc1`, the MIC (in test [1]; in test [2]; against Mycobacterium szulgai; with Mycobacteroides chelonae; in test [3]; in test [4]) was above 32 mg/L in each case.
`COc1ccc(-c2c3c(nc4[nH]nc(-c5ccc(Cl)cc5)c24)-c2ccccc2C(=O)C3=O)cc1`: the MIC (in test [1]; in test [2]; against Mycobacterium szulgai; in the test with Mycobacteroides chelonae; in test [3]; in test [4]) was above 32 mg/L throughout.
Take `Cc1ccc(-c2c3c(nc4c2c(C)nn4-c2ccccc2)-c2ccccc2C(=O)C3=O)cc1`: the MIC in test [1] was above 32 mg/L; in test [2], above 32 mg/L; in the test with Mycobacterium szulgai, above 32 mg/L; in the test with Mycobacteroides chelonae, above 32 mg/L; in test [3], 4 mg/L (≈ 9.31 µM); in test [4] it was above 32 mg/L.
For the compound `Cc1nn(-c2ccccc2)c2nc3c(c(-c4ccccc4)c12)C(=O)C(=O)c1ccccc1-3`, the MIC in test [1] is above 32 mg/L; in test [2], above 32 mg/L; in the test on Mycobacterium szulgai, above 32 mg/L; in the test on Mycobacteroides chelonae, above 32 mg/L; in test [3], at most 2 mg/L; in test [4], above 32 mg/L.
As to `Cc1ccc(-c2n[nH]c3c2C(c2ccccc2)C2=C(N3)c3ccccc3C(=O)C2=O)cc1` (stereo not given), the MIC in test [1] is above 32 mg/L; in test [2] it was above 32 mg/L; in the test with Mycobacterium szulgai, above 32 mg/L; against Mycobacteroides chelonae, above 32 mg/L; in test [3] it was 16 mg/L (≈ 38.3 µM); in test [4], above 32 mg/L.
`CO[C@H]1/C=C/O[C@@]2(C)Oc3c(C)c(O)c4c(O)c(c(/C=N/N5CCN(C)CC5)c(O)c4c3C2=O)NC(=O)/C(C)=C\C=C\[C@H](C)[C@H](O)[C@@H](C)[C@@H](O)[C@@H](C)[C@H](OC(C)=O)[C@@H]1C` [RIFAMPIN]: the MIC was above 0.5 mg/L in test [1]; above 0.5 mg/L in test [2]; above 0.5 mg/L in the test with Mycobacterium szulgai; 0.125 mg/L (≈ 0.152 µM) in the test on Mycobacteroides chelonae; 0.125 mg/L (≈ 0.152 µM) in test [3]; above 0.5 mg/L in test [4].
As for `Cc1nn(-c2ccccc2)c2nc3c(c(-c4ccc(Cl)cc4)c12)C(=O)C(=O)c1ccccc1-3`, the MIC (in test [1]; in test [2]; against Mycobacterium szulgai; with Mycobacteroides chelonae; in test [3]; in test [4]) was above 32 mg/L each time.
